Data as given in article PMC3948622, “Docking, Synthesis and Antiproliferative Activity of N-Acylhydrazone Derivatives Designed as Combretastatin A4 Analogues” (PLoS ONE, 2014).
In brackets after ≈: the same amount, converted by molar mass.

Columns and labels:
[1] = Aqueous solubility assay by ultraviolet spectroscopy; type: physicochemical; details: water (saturated aqueous solution), thermodynamic from solid, 2 hours at 37°C, read-out: Aq. Solubility
Experimental: Ultraviolet spectroscopy was performed using Femto spectrophotometer. The wavelength used in solubility assay was determined by the -λ max characteristic of each compound. Spectra were analyzed in Femtoscan software. Mass spectrometry was obtained by positive ionization at Bruker AmaZon SL and data analyzed in Compass 1.3.SR2 software.
The solubility assay was performed considering the absorptivity of compounds in ultraviolet spectroscopy as described by Schneider and coworkers. The assay wavelength was determined by the λ max characteristic of each compound.
Saturated aqueous solutions were prepared (0.01 mg/mL) and were kept under stirring for 2 hours at 37°C. The supernatant was filtered in 0,45 µm filters and transferred to a quartz cuvette (10 mm) to spectra acquisition.
Solubility was determined by linear regression using as graph plots, solutions prepared by dilutions of the original solution in methanol. The data were obtained in triplicates and the mean values were used to the graph plots. The correlation coefficient (R^2) values were between 0.9972 and 0.9999.

[2] = tested on: HCT-8 (adenocarcinoma ileocecal); test: In vitro antiproliferative MTT assay, HCT-8; type: cell-based
Experimental: (§1) The antiproliferative activity of compounds 5a–r was determined based on an MTT assay and using CA-4 as standard against the tumor cell lines: HL-60 (human leukemia), SF-295 (human glioblastoma), MDA-MB435 (melanoma), PC3M (prostate cancer), OVCAR-8 (ovaries adenocarcinoma), NCI-H258M (pulmonary bronchio-alveolar carcinoma) and HCT-8 (adenocarcinoma ileocecal) (Table 2). To determine the selectivity index of compounds 5a–r, their antiproliferative profile was also evaluated toward human lymphocytes (Table 2).
(§2) Compounds (0.009–5 µg/mL) were tested for cytotoxic activity against selected cancer cell lines: SF-295 (glioblastoma), HCT-8 (colon), MDAMB-435 (melanoma), HL60 (leukemia), PC3M (prostate cancer), OVCAR-8 (ovaries adenocarcinoma) and NCI-H258M (pulmonary bronchio-alveolar carcinoma). All cell lines were kindly obtained from the National Cancer Institute (Bethesda, MD, USA).Tumor cell proliferation was quantified through the ability of living cells to reduce the yellow dye 3-(4,5-dimethyl-2-thiazolyl)-2,5-diphenyl-2H-tetrazolium bromide (MTT, Sigma Aldrich)) to a purple formazan product and absorbance was measured at 595 nm (DTX-880, Beckman Coulter).

[3] = tested on: OVCAR-8 (ovaries adenocarcinoma); test: In vitro antiproliferative MTT assay, OVCAR-8; type: cell-based
Experimental: as §1, §2

[4] = tested on: NCI-H358M (pulmonary bronchio-alveolar carcinoma); test: In vitro antiproliferative MTT assay, NCI-H358M; type: cell-based
human lymphocytes = test: In vitro antiproliferative assay, human lymphocytes; type: cell-based; details: Lymphocyte, Table 2
Experimental: as §1
To investigate the selective cytotoxic activity of the N-acylhydrazones derivatives (5a–r), their antiproliferative potency was also assessed toward human lymphocytes and the results were compared to the data from CA-4 ([…]). The selectivity index (SI), which was the IC50 for human lymphocytes/IC50 for cancer cell lines after treatment with CA-4 and N-acylhydrazones (5a–r), was calculated, as depicted in Table 3. […] The best comparative selectivity indices (CA-4 vs 5b) were obtained from the SF-295 (SI = 13), MDA-MB435 (SI = 42) and NCI-H258M (SI = 9.5) tumor cell lines, and the worst results were found for OVCAR-8 (SI = 0.5).

[5] = tested on: HCT-116 (colon carcinoma); test: Hollow Fiber Assay (HFA), HCT-116 fibers s.c. in mice; type: in vivo, BALB/c nude mice; details: 4 days; for Proliferation (OD595 nm) HCT-116: mean ± S.E.M.
Experimental: Cell culture of SF-295 (glioblastoma) and HCT-116 (colon carcinoma) was performed in RPMI 1640 medium supplemented with 10% fetal bovine serum, 2 mM glutamine, at 37°C with 5% CO2.
Polyvinylidene fluoride (PVDF) HFs with a 1-mm internal diameter and a molecular weight cutoff point of 500 kDa were used (Spectrum Laboratories, Houston, TX). The fibers were cut into pieces 12–15 cm long, washed 2× with sterile distilled water and kept in sterile conditions.
Before use, under sterile conditions, the fibers were incubated in complete RPMI with 20% fetal bovine serum (FBS) overnight (packaging time). Cell viability was assessed by trypan blue exclusion assay. Then, a cell suspension of 7.0×10^6 cell/mL at 4°C was injected into the fiber, with the ends thereof immediately heat-sealed. The fibers were cut into 2 cm each, transferred to petri plates and incubated in complete RPMI medium for 24 h prior to implantation in mice. Each cell was injected into one fiber of a different color (HCT-116, yellow fibers; SF-295, blue fibers).
Each animal received 2 fibers at s.c. site. All incisions were sealed with a surgical stapler.
Tumor cell proliferation was quantified through the ability of living cells to reduce the yellow dye 3-(4,5-dimethyl-2-thiazolyl)-2,5-diphenyl-2H-tetrazolium bromide (MTT, Sigma Aldrich) to a purple formazan product. For this purpose, the fibers removed from animals were incubated with MTT 1 mg/mL in 6-well plates during 4 h at 37°C, 5% CO2 and 95% humidity. The MTT solution was aspirated; fibers were washed with saline solution containing protamine sulphate 2.5% and incubated in protamine solution overnight at 4°C. Fibers were transferred to 24 well plates, cut into 2 or 3 pieces and put to dry. The formazan was dissolved in […] of DMSO, aliquots (150 uL) were transferred to 96 well plates and absorbance was measured at 595 nm (DTX-880, Beckman Coulter).

[6] = IC50 for human lymphocytes/IC50 for cancer cell line
[7] = SI of 5b relative to SI of CA-4

In the case of `COc1cc(C(=O)N/N=C/c2ccccc2)cc(OC)c1OC` [Compound 5b, (E)-N′benzylidene-3,4,5-trimetoxybenzohydrazide], the solubility at 2 h [1] is reported as 39.5 µg/mL (≈ 126 µM), the IC50 ([2]; Homo sapiens, HCT-8, Table 2, MTT) is reported as 450 nM and the “SI Lymphocyte/ HCT-8” value [2, 6] is reported as 2.86±0.13. The IC50 ([3]; Homo sapiens, OVCAR-8, Table 2, MTT) was 290 nM, the “SI Lymphocyte/ OVCAR-8” value [3, 6] was 4.39±0.21 and the “comparative selectivity index (CA-4 vs 5b) OVCAR-8” value [3, 7] was 0.5. For the same compound, the “SI Lymphocyte/ NCI-H358M” value [4, 6] was 4.05±0.25, the IC50 ([4]; NCI-H358M, Table 2, MTT) was 350 nM and the “comparative selectivity index (CA-4 vs 5b) NCI-H258M” value [4, 7] was 9.5. The IC50 (human lymphocytes) was 1340 nM, the “Inhibition (%) HCT-116” value ([5]; 25 mg/kg/day intraperitoneally) was 82.89% and the “Proliferation (OD595 nm) HCT-116” value ([5]; 25 mg/kg/day intraperitoneally) was 0.26±0.04 OD595 nm. The “Inhibition (%) HCT-116” value ([5]; 50 mg/kg/day intraperitoneally) was 80.76% and the “Proliferation (OD595 nm) HCT-116” value ([5]; 50 mg/kg/day intraperitoneally) was 0.29±0.05 OD595 nm.
